Source: patent US20250032477A1, “COMPOUNDS, PHARMACEUTICAL COMPOSITIONS, AND METHODS FOR THE TREATMENT, PREVENTION, OR MANAGEMENT OF HYPERPROLIFERATIVE DISORDERS” (VINCERX PHARMA GMBH, priority 2021, published 2025)
Read-outs that look alike come from different tables or passages of the source.

Assays:
[1] = Caco-2 flux assay for cellular permeability; conditions: human, Caco-2
Description: Caco-2: The cell permeability of a substance can be investigated by means of in vitro testing in a flux assay using Caco-2 cells [M. D. Troutman and D. R. Thakker, Pharm. Res. 20 (8), 1210-1224 (2003)]. For this purpose, the cells were cultured for 15-16 days on 24-well filter plates. For the determination of permeation, the respective test substance was applied in a HEPES buffer to the cells either apically (A) or basally (B) and incubated for 2 hours. After 0 hours and after 2 hours, samples were taken from the cis and trans compartments. The samples were separated by HPLC (Agilent 1200, Böblingen, Germany) using reverse phase columns. The HPLC system was coupled via a Turbo Ion Spray Interface to a Triple Quadropol mass spectrometer API 4000 (AB SCIEX Deutschland GmbH, Darmstadt, Germany). The permeability was evaluated on the basis of a Papp value, which was calculated using the formula published by Schwab et al. [D. Schwab et al., J. Med. Chem. 46, 1716-1725 (2003)]. A substance was classified as actively transported when the ratio of Papp (B-A) to Papp (A-B) (efflux ratio) was >2 or <0.5. Compounds with an efflux ratio of 0.5-2 are considered not actively transported. In Table 5, reference compounds are provided for comparison. Ref 1 is exatecan mesylate, Ref 2 is DXd, and Ref 3 is 10,11-methylenedioxy-camptothecin (FL118).

SUM149 = assay: Cytotoxicity in vitro in the presence and absence of elastase (MTT); assay type: cell-based; conditions: SUM149 cells, 72 h, MTT
Description: (§1) Cultivation of cells was performed according to standard procedures with the media recommended by the provider. The cells, in a total volume of 100 μL, were seeded in a 96-well plate with a white bottom (#3610). After a 24 h incubation period at 37° C. and […], the medium was exchanged by adding 90 μL fresh medium. The treatment started by adding the test compound in 10 μL of culture medium to the cells in triplicates. Concentrations ranging from 10^−5 M to 10^−13 M were chosen. Two identically treated sets of samples were prepared. One set was treated with the test compound alone, whereas to the second set the compound and 10 nM elastase was added followed by a 72 h incubation period at 37° C. and 5% CO2. The proliferation was detected using the MTT assay (ATCC). At the end of the incubation period the MTT reagent was added to all samples for 4 h. Lysis of the cells followed by addition of the detergent was done overnight. The formed dye was detected at 570 nm. The proliferation of untreated but otherwise identically handled cells was define as the […].

HT29 = assay: as above; assay type: cell-based, human; conditions: Homo sapiens, HT-29, HT29 cells, 72 h, MTT
Description: as §1

786-O = assay: as above; assay type: cell-based, human; conditions: Homo sapiens, 786-0, 786-O cells, 72 h, MTT
Description: as §1

NCI H292 = assay: as above; assay type: cell-based, human; conditions: Homo sapiens, NCI H292 cells, 72 h, MTT
Description: as §1

[2] = with 10 nM elastase, read-out: SUM149 IC50 w elastase
[3] = without elastase, read-out: SUM149 IC50 w/o
[4] = with 10 nM elastase, read-out: HT29 IC50 w elastase
[5] = without elastase, read-out: HT29 IC50 w/o
[6] = with 10 nM elastase, read-out: 786-O IC50 w elastase
[7] = without elastase, read-out: 786-O IC50 w/o
[8] = with 10 nM elastase, read-out: NCI H292 IC 50 w elastase
[9] = without elastase, read-out: NCI H292 IC 50 w/o

| SMILES | Papp A→B at 2 h [1] | efflux ratio at 2 h [1] | IC50 (SUM149; [2]) | IC50 (SUM149; [3]) | IC50 (HT29; [4]) | IC50 (HT29; [5]) | IC50 (786-O; [6]) | IC50 (786-O; [7]) | IC50 (NCI H292; [8]) | IC50 (NCI H292; [9]) |
| --- | --- | --- | --- | --- | --- | --- | --- | --- | --- | --- |
| CCN[C@H]1CCc2c(C)c(F)cc3nc4c(c1c23)Cn1c-4cc2c(c1=O)COC(=O)[C@]2(O)CC.O=C(O)C(F)(F)F [Compound 16, trifluoroacetic acid (1S,9S)-9-ethyl-1-(ethylamino)-5-fluoro-9-hydroxy-4-methyl-1,2,3,9,12,15-hexahydro-10H,13H-benzo[de]pyrano[3′,4′:6,7] indolizino[1,2-b]quinoline-10,13-dione (1/1)] | 10 to 99.9 ×10⁻⁶ cm/s | 0.5 to 2 | 0.01 to 0.1 nM | 0.01 to 0.1 nM | 0.1 to 1 nM | 0.1 to 1 nM | 0.1 to 1 nM | 0.1 to 1 nM | 0.1 to 1 nM | 0.1 to 1 nM |
| CC[C@@]1(O)C(=O)OCc2c1cc1n(c2=O)Cc2c-1nc1cc(F)c(C)c3c1c2[C@@H](NC(=O)C(F)(F)F)CC3 [Compound 8, N-[(1S,9S)-9-ethyl-5-fluoro-9-hydroxy-4-methyl-10,13-dioxo-2,3,9,10,13,15-hexahydro-1H,12H-benzo[de]pyrano[3′,4′:6,7]indolizino[1,2-b]quinolin-1-yl]-2,2,2-trifluoroacetamide] | 1 to 9.9 ×10⁻⁶ cm/s | > 2 | < 0.01 nM | < 0.01 nM | 0.01 to 0.1 nM | 0.01 to 0.1 nM | 0.01 to 0.1 nM | 0.01 to 0.1 nM | 0.01 to 0.1 nM | 0.01 to 0.1 nM |
| CC[C@@]1(O)C(=O)OCc2c1cc1n(c2=O)Cc2c-1nc1cc(F)c(C)c3c1c2[C@@H](NC(C)=O)CC3 [Compound 7, N-[(1S,9S)-9-ethyl-5-fluoro-9-hydroxy-4-methyl-10,13-dioxo-2,3,9,10,13,15-hexahydro-1H,12H-benzo[de]pyrano[3′,4′:6,7]indolizino[1,2-b]quinolin-1-yl]acetamide] | 0.1 to 0.9 ×10⁻⁶ cm/s | > 2 | < 0.01 nM | < 0.01 nM | 0.01 to 0.1 nM | 0.01 to 0.1 nM | 0.01 to 0.1 nM | 0.01 to 0.1 nM | 0.01 to 0.1 nM | 0.01 to 0.1 nM |
